What was measured:
[1] = ELISA quantification of peptide 5A in blood plasma after intravenous injection of peptide 5A nanoparticles; format: in vivo, Wistar rats
Procedure: (§1) The acrylamide based nanoparticles containing peptide 5A were injected in the lateral tail vein of 3 Wistar rats at a concentration of 17.25 mg of nanoparticle per kg of bodyweight, corresponding to 0.5 mg peptide 5A per kg of bodyweight. Blood samples were collected in lithium heparin plasma microtainer tubes (BD, Franklin Lakes, NJ). A small incision was made in the contralateral tail vein and the blood was collected directly into the tube. Immediately after collecting the blood, the tubes were manually inverted 8 times to ensure mixing with the anti-coagulant. Blood samples were stored on ice for up to 30 minutes before separating the plasma by centrifugation at 2000 g for 10 minutes. No hemolysis was observed.
Samples were collected from each animal immediately after injection (time point 0) and at 15, 30, 60, 120, 240, 480 minutes after injection. All plasma samples were stored at -80°C until further analysis.
The plasma samples were diluted 1/500 in PBS, based on the range of the standard curve and the expected initial plasma concentrations. Streptavidin coated ELISA 96-well microplates (Steffens Biotechnische Analysen, Germany) were rinsed with 100 μl PBS per well and incubated with plasma samples in duplicate, for one hour at room temperature. After washing the wells three times with PBS, the carboxyfluorescein group present on the reporter peptide was detected by incubating with monoclonal (mAb) mouse-anti-fluorescein peroxidase-conjugated IgG (Dianova, Hamburg, Germany) diluted 1:100,000 in PBS with 0.1% BSA for one hour. Subsequently, the wells were washed three times with PBS and incubated with soluble high sensitivity TMB (SDT, Baesweiler, Germany) for 10 minutes in the dark. The enzymatic peroxidase reaction was stopped with 1 M HCl and absorbance at 450 nm was measured on a VICTOR X3 Multilabel Plate Reader (Perkin Elmer, Waltham, MA). All incubations were performed at room temperature on a plate shaker at 650 rpm. The wells were washed with PBS three times both after sample and antibody incubation. The TMB reaction was performed in the dark for 10 minutes. […] The absorbance at 450 nm of the negative controls was considered as background and subtracted from the absorbance of the plasma samples.
Free peptide 5A was used as a positive control in the ELISA described above with a lower limit of detection of 1 ng/mL (data not shown). Nanoparticles containing a known concentration of peptide 5A, were used to generate a standard curve for the quantification of blood plasma samples. The standard curve data were fitted to a Hill curve using Graphpad Prism (Graphpad Software, La Jolla, CA) and the Hill equation was used to calculate the concentration of peptide 5A in blood plasma samples from the absorbance at 450 nm (See S1 Table).

[2] = LC/MS quantification of peptide 5A in blood plasma of nanoparticle injected rats; format: in vivo, Wistar rats; details: same rat plasma samples
Procedure: as §1, with “observed. […]” for “observed.”
Peptide 5A standards were prepared by spiking rat plasma with peptide 5A+B and subsequently reducing the disulfide bond between peptide 5A and 5B, yielding free peptide 5A as depicted in Fig 1. […] (Neither the peaks corresponding to the mass of peptide 5B nor the unreduced peptide 5A+B were analyzed, see LC-MS analysis section). […]
Plasma samples for LC/MS were prepared by adding 300 μL of 10 mM TCEP in loading mobile phase mix to 30 μL of sample. […] The filtrate was transferred to autosampler vials and analyzed or frozen at -80°C until analysis.
Samples with expected concentrations higher than the upper limit of quantification were diluted with rat plasma prior to sample preparation. […]

[3] = i.v. nanoparticles 17.25 mg/kg = 0.5 mg peptide 5A per kg, Wistar rats, n = 3

Substance: napvsipqKGGC [peptide 5A, reporter peptide napvsipqKGGC functionalized with biotin and carboxyfluorescein, attached to nanoparticles]
- peptide 5A plasma concentration (ELISA), highest concentration ([1]; 15 minutes after injection, i.v. lateral tail vein, nanoparticles 17.25 mg/kg = 0.5 mg peptide 5A per kg, male Wistar rats, plasma diluted 1/500 in PBS, mean ± S.E.M., 3 animals): 2706 ± 466 ng/mL
- time after injection up to which the peptide was detected in plasma (ELISA) [1, 3]: up to 2 hours
- time of highest plasma concentration (ELISA) [1, 3]: 15 min
- peptide 5A plasma concentration (ELISA) ([1]; time point 0 (immediately after injection), i.v. lateral tail vein, nanoparticles 17.25 mg/kg = 0.5 mg peptide 5A per kg, male Wistar rats, plasma diluted 1/500 in PBS, mean ± S.E.M., 3 animals): 1661 ± 514 ng/mL
- factor by which plasma concentrations measured by LC/MS were higher than by ELISA [2]: ~4
